# Experimental data from publication PMC2981508 (Science (New York, N.Y.), 2009).
# How the values were obtained:
# progesterone receptor = molecular target: T1, progesterone receptor (Homo sapiens, UniProt P06401); assay: in vitro fluorescence polarization binding assay
# T1 sequence (P06401 1-933): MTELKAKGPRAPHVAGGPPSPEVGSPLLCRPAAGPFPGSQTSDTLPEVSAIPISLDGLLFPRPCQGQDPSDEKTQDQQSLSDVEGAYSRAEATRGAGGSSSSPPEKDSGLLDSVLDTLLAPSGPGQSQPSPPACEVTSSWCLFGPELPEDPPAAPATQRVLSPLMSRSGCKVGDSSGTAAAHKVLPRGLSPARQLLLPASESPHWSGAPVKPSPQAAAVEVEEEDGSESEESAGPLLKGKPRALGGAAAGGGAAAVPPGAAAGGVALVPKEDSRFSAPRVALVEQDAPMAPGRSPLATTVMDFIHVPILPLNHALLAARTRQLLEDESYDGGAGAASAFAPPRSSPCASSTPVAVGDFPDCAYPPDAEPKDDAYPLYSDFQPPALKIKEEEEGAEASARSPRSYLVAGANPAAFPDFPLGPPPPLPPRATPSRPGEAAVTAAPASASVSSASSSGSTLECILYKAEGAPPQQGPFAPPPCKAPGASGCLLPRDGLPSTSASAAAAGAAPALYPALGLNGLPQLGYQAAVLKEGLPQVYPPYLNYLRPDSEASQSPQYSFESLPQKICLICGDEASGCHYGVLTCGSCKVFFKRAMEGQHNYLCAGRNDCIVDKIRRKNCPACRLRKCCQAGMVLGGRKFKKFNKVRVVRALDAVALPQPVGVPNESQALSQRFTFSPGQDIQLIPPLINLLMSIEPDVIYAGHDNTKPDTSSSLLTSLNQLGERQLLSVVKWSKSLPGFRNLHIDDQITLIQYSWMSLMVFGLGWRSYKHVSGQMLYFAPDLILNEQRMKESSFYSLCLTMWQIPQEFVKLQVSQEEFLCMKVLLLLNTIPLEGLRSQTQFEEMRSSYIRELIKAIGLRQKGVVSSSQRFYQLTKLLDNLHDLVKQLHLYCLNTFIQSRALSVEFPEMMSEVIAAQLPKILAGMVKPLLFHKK
# [1] = tested on: AR target genes PSA and TMPRSS2 in LNCaP/AR cells; assay: qRT-PCR of AR-dependent genes in LNCaP/AR cells; type: cell-based, human; details: androgen-depleted media 5% CSS, 8 hours, 1 and 10 μM
# VCaP cells = assay: VCaP cell proliferation; type: cell-based, human; details: 1 and 10 μM, media containing FBS
# [2] = tested on: DU145 human prostate cancer cells; assay: Growth of AR-negative DU145 cells in vitro; type: cell-based
# LNCaP/AR xenografts = assay: Ki-67 staining of LNCaP/AR xenografts; type: in vivo, mice; details: after 5 days of treatment
# AR [3] = type: cell-based; details: in vitro
# AR [4] = molecular target: T2, AR (Homo sapiens, UniProt P10275); assay: in vitro studies of AR activity; type: cell-based
# T2 sequence (P10275 1-920): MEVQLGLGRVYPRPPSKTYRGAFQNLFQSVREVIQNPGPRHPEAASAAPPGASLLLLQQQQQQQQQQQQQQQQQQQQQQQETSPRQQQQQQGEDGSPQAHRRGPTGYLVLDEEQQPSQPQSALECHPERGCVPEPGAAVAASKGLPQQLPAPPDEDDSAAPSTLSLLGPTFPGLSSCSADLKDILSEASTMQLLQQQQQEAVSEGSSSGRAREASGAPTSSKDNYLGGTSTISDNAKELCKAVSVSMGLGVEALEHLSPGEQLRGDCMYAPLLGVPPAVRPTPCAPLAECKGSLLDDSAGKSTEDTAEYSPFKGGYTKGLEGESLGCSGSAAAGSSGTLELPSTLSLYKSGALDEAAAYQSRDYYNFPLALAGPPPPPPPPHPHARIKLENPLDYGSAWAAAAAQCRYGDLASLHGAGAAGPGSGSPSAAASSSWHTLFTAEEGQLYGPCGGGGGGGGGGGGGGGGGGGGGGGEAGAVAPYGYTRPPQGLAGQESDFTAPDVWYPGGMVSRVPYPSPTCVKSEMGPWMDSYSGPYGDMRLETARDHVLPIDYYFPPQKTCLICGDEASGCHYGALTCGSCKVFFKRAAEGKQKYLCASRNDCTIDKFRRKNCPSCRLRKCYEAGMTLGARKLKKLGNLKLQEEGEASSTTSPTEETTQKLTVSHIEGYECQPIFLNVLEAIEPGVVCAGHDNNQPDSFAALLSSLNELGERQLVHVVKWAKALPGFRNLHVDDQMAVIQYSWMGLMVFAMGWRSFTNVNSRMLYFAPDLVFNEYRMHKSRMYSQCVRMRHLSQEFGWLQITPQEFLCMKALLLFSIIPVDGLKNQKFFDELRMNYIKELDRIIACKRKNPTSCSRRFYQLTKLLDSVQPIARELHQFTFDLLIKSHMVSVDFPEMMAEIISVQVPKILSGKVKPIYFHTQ
# [5] = Pharmacokinetics of RD162 in mice
# [6] = Plasma levels in LNCaP/AR tumor-bearing mice; details: 10 mg/kg oral daily, 20 hours after the final dose on day 28
# LNCaP/AR tumors = assay: LNCaP/AR xenograft model of CRPC in castrate male mice
smiles,measurement,setting,value
CNC(=O)c1ccc(N2C(=S)N(c3ccc(C#N)c(C(F)(F)F)c3)C(=O)C23CCC3)cc1F [RD162],binding to progesterone receptor,progesterone receptor,little to no binding
same,Expression of AR target genes PSA and TMPRSS2 (agonist activity),[1],do not have agonist activity
same,Growth of VCaP cells,VCaP cells,suppressed growth
same,Growth suppression in AR-negative DU145 cells,[2],not observed
same,cellular proliferation by Ki-67 staining,LNCaP/AR xenografts,substantially reduced
same,effects on AR protein expression,AR [3],no obvious changes
same,concentrations expected to block AR activity based on the in vitro studies,AR [4],1 to 10 µM
same,bioavailable after oral delivery,[5],~50%
same,serum half-life,[5],about 30 hours
same,Trough levels,[5]; 24 hours after a single 20 mg/kg oral dose,~23 µM
same,Plasma levels (mean),[6],24 µM
same,antitumor activity,LNCaP/AR tumors; 0.1 mg/kg,some slowing of tumor growth
same,antitumor activity,LNCaP/AR tumors; 1 mg/kg,a few tumor regressions
same,Tumors no longer palpable (of 12),"LNCaP/AR tumors; 10 mg/kg oral daily, 28 days",three tumors
same,Tumors regressed (12 tumors per group),"LNCaP/AR tumors; 10 mg/kg oral daily, 28 days",all twelve tumors
same,Tumors regressed by greater than 50 percent (of 12),"LNCaP/AR tumors; 10 mg/kg oral daily, 28 days",nine tumors
same,Median time to tumor progression,LNCaP/AR tumors; continual 10 mg/kg oral daily treatment,186 days
